Test results: patent US9963441B2, “Histone demethylase inhibitors” (CELGENE QUANTICEL RESEARCH, INC., priority 2013, dated 2018)

Target: T1, JMJD2C (Homo sapiens, UniProt Q9H3R0)
T1 construct: purchased BPS Bioscience 50105
T1 sequence (Q9H3R0 2-372): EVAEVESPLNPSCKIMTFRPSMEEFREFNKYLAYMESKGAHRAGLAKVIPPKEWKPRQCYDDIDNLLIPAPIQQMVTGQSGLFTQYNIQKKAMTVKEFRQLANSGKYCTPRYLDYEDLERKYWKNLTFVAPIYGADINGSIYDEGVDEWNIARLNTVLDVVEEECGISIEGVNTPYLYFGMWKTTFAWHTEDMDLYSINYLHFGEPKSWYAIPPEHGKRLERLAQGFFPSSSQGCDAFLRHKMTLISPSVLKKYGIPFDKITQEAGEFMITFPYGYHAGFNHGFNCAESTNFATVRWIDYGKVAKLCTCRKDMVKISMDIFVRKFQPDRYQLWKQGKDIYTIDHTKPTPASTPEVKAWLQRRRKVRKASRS
Assay: JMJD2C in vitro enzyme inhibition assay (TR-FRET)
Format: biochemical
Procedure: This assay determines the ability of a test compound to inhibit Jarid1A, Jarid1B, JMJD2C, and JMJD2A demethylase activity. […] Baculovirus expressed JMJD2C (GenBank Accession #BC143571, AA 2-372) was purchased from BPS Bioscience (Cat#50105).
The ability of test compounds to inhibit the activity of JMJD2C was determined in 384-well plate format under the following reaction conditions: 0.3 nM JMJD2C, 300 nM H3K9me3-biotin labeled peptide (Anaspec cat #64360), 2 μM alpha-ketoglutaric acid in assay buffer of 50 mM HEPES, pH7.3, 0.005% Brij35, 0.5 mM TCEP, 0.2 mg/ml BSA, 50 μM sodium L-ascorbate, and 2 μM ammonium iron(II) sulfate. Reaction product was determined quantitatively by TR-FRET after the addition of detection reagent Phycolink Streptavidin-allophycocyanin (Prozyme) and Europium-anti-di-methylated histone H3 lysine 9 (H3K9me2) antibody (PerkinElmer) in the presence of 5 mM EDTA in LANCE detection buffer (PerkinElmer) at a final concentration of 50 nM and 1 nM, respectively.
The assay reaction was initiated by the following: 2 μl of the mixture of 900 nM H3K9me3-biotin labeled peptide and 6 μM alpha-ketoglutaric acid with 2 μl of 11-point serial diluted inhibitor in 3% DMSO were added to each well of the plate, followed by the addition of 2 μl of 0.9 nM JMJD2C to initiate the reaction. […]

IC50: 1 to 10 µM
Compound: Cn1cnc(-c2cc(-c3nn[nH]n3)ccn2)c1-c1ccc(Cl)c(OCc2ccccc2)c1 [Example 161, 2-[5-(4-chloro-3-phenylmethoxyphenyl)-1-methylimidazol-4-yl]-4-(2H-tetrazol-5-yl)pyridine]
